Results reported in article PMC11110727, “Exploiting thiol-functionalized benzosiloxaboroles for achieving diverse substitution patterns – synthesis, characterization and biological evaluation of promising antibacterial agents” (RSC Medicinal Chemistry, 2024).
≈ marks a conversion by molar mass, not a printed value. Where two headings read alike, the source gives them in different places.

Tests used:
[1] = test system: S. aureus ATCC 43300 MRSA; assay: Antibacterial activity: MIC/MBC determination and disc-diffusion; format: cell-based; details: Staphylococcus aureus, S. aureus ATCC 43300 MRSA; for MIC: read-out: MIC
Method: (§1) Direct antimicrobial activity was determined against the following standard strains: (1) Gram-positive cocci: methicillin-sensitive Staphylococcus aureus ATCC 6538P (MSSA), methicillin-resistant S. aureus subsp. aureus ATCC 43300 (MRSA), S. epidermidis ATCC 12228, Enterococcus faecium ATCC 6057, E. faecalis ATCC 29212, Bacillus subtilis ATCC 6633; (2) Gram-negative bacteria from Enterobacteriales order: Klebsiella pneumoniae ATCC 13883, Escherichia coli ATCC 25922, Enterobacter cloacae DSM 6234, Proteus mirabilis ATCC 12453, Serratia marcescens ATCC 13880; (3) Gram-negative non-fermentative rods: Acinetobacter baumannii ATCC 19606, Pseudomonas aeruginosa ATCC 27853, Stenotrophomonas maltophilia ATCC 12714, S. maltophilia ATCC 13637, Burkholderia cepacia ATCC 25416, Bordetella bronchiseptica ATCC 4617; (4) yeasts: Candida albicans ATCC 90028, C. krusei ATCC 6258, C. parapsilosis ATCC 22019, C. tropicalis (Castellani) Berkhout ATCC 750, C. tropicalis IBA 171, C. guilliermondii IBA 155, and Saccharomyces cerevisiae ATCC 9763. Moreover, 5 clinical strains of methicillin-resistant S. aureus were also included: NMI 664 K, NMI 1576 K, NMI 1712 K, NMI 1991 K, and NMI 2541 K. All strains were stored at −80 °C. Prior to testing, each bacterial strain was subcultured twice on tryptic soy agar TSA (bioMerieux) medium and yeast strains on Sabouraud dextrose agar (bioMerieux) for 24–48 h at 30 °C to ensure viability. The antimicrobial activity was evaluated as previously described[26] by the disc-diffusion method and the MIC determination assays according to the EUCAST (ref. [71] and [72]) and CLSI (ref. [53] and [73]) recommendations. Assessment of bactericidal (MBC) and fungicidal (MFC) activities was performed according to the CLSI recommendations.[54,74] The following reference agents were used: fluconazole (in the case of fungi), linezolid (for Gram-positive bacteria), and nitrofurantoin (for Gram-negative rods). The new benzosiloxaboroles were dissolved in DMSO (Sigma).

[2] = test system: B. bronchiseptica ATCC 4617; assay: Antibacterial activity: MIC/MBC, disc-diffusion; format: cell-based, Bordetella bronchiseptica; details: B. bronchiseptica ATCC 4617; for MIC: Bordetella bronchiseptica, ATCC4617, read-out: MIC
Method: as §1, with “The following reference agents were used: fluconazole (in the case of fungi), linezolid (for Gram-positive bacteria), and nitrofurantoin (for Gram-negative rods).” left out
(§2) Considering that the MDR efflux pumps often contribute to Gram-negative rod resistance, the MIC values of studied agents, with or without the pump inhibitor, PAβN (20 μg mL^−1) (Sigma), were determined.[75] The MIC was determined using Mueller–Hinton II broth medium (MHB) (Becton Dickinson) by the broth microdilution method, according to the CLSI guideliness.[53] To minimize the influence of PAβN on the destabilization of bacterial cell covers, the tests were conducted in the presence of 1 mM MgSO4 (Sigma).[76] At least a 4-fold reduction in the MIC value after the addition of PAβN was considered significant.[56,77]

[3] = test system: P. aeruginosa ATCC 27853; assay: Antibacterial activity: MIC/MBC, MIC with PAβN, disc-diffusion; format: cell-based; details: Pseudomonas aeruginosa, ATCC27853; P. aeruginosa ATCC 27853; read-out: MIC
Method: as §1, with “The following reference agents were used: fluconazole (in the case of fungi), linezolid (for Gram-positive bacteria), and nitrofurantoin (for Gram-negative rods).” left out
as §2

[4] = test system: S. maltophilia ATCC 13637; assay: as above; format: cell-based, Stenotrophomonas maltophilia; details: S. maltophilia ATCC 13637; for MIC: read-out: MIC
Method: as §1, with “The following reference agents were used: fluconazole (in the case of fungi), linezolid (for Gram-positive bacteria), and nitrofurantoin (for Gram-negative rods).” left out
as §2

[5] = test system: S. maltophilia ATCC 12714; assay: as above; format: cell-based, Stenotrophomonas maltophilia; details: Stenotrophomonas maltophilia, ATCC12714; S. maltophilia ATCC 12714; read-out: MIC
Method: as §1, with “The following reference agents were used: fluconazole (in the case of fungi), linezolid (for Gram-positive bacteria), and nitrofurantoin (for Gram-negative rods).” left out
as §2

[6] = test system: S. aureus ATCC 6538P; assay: Antibacterial activity: MIC/MBC determination and disc-diffusion; format: cell-based, Staphylococcus aureus; details: S. aureus ATCC 6538P; for diameter of inhibition zone: disc-diffusion, — = zone not observed; for MBC / MIC: Staphylococcus aureus, ATCC6538P; for MIC: read-out: MIC
Method: as §1

[7] = test system: A. baumannii ATCC 19606; assay: Antibacterial activity: MIC/MBC, MIC with PAβN, disc-diffusion; format: cell-based, Acinetobacter baumannii; details: Acinetobacter baumannii, ATCC19606; A. baumannii ATCC 19606; read-out: MIC
Method: as §1, with “The following reference agents were used: fluconazole (in the case of fungi), linezolid (for Gram-positive bacteria), and nitrofurantoin (for Gram-negative rods).” left out
as §2

[8] = test system: S. cerevisiae ATCC 9763; assay: Antifungal activity: MIC/MFC, disc-diffusion; format: cell-based, Saccharomyces cerevisiae; details: for MIC: read-out: MIC; for diameter of inhibition zone: (-) = zone not observed, paper discs 9 mm
Method: as §1

[9] = test system: C. albicans ATCC 90028; assay: Antifungal activity: MIC/MFC, disc-diffusion; format: cell-based, Candida albicans; details: for MIC: Candida albicans, ATCC90028, read-out: MIC; for diameter of inhibition zone: C. albicans ATCC 90028, (-) = zone not observed, paper discs 9 mm
Method: as §1

[10] = read-out: MBC (first MBC where Eagle effect)
[11] = Stenotrophomonas maltophilia, ATCC13637
[12] = Saccharomyces cerevisiae, ATCC9763
[13] = value after the slash, read-out: second MBC (Eagle effect)
[14] = (-) = zone not observed, paper discs 9 mm

C[Si]1(C)OB(O)c2cc(F)c(SCCC(=O)Nc3cnccn3)c(F)c21 [Compound 10, 3-((5,7-Difluoro-3-hydroxy-1,1-dimethyl-1,3-dihydrobenzo[c][1,2,5]oxasilaborol-6-yl)thio)-N-(pyrazin-2-yl)propanamide]
MBC [1, 10]: 400 µg/mL (≈ 1010 µM) | MIC [1]: 50 µg/mL (≈ 126 µM) | MIC [2]: > 400 µg/mL | MIC [3]: > 400 µg/mL | MIC [4, 11]: > 400 µg/mL | MIC [5]: > 400 µg/mL | diameter of inhibition zone [6]: 24 mm | MBC [6, 10]: 400 µg/mL (≈ 1010 µM) | MIC [6]: 50 µg/mL (≈ 126 µM) | MIC [7]: > 400 µg/mL | MIC [8, 12]: > 400 µg/mL | MIC [9]: > 400 µg/mL

C[Si]1(C)OB(O)c2ccc(SC3CC(=O)N(c4ccc(F)cc4)C3=O)c(F)c21 (centres unmarked) [Compound 15, 3-((7-Fluoro-3-hydroxy-1,1-dimethyl-1,3-dihydrobenzo[c][1,2,5]oxasilaborol-6-yl)thio)-1-(4-fluorophenyl)pyrrolidine-2,5-dione]
MIC [1]: 25 µg/mL (≈ 59.6 µM) | MIC [2]: > 200 µg/mL | MIC [3]: > 200 µg/mL | MIC [4, 11]: > 200 µg/mL | MIC [5]: > 200 µg/mL | diameter of inhibition zone [6]: 23 mm | MIC [6]: 25 µg/mL (≈ 59.6 µM) | MIC [7]: > 200 µg/mL | diameter of inhibition zone ([8]; S. cerevisiae ATCC 9763): 26 mm | MIC [8, 12]: 200 µg/mL (≈ 477 µM) | diameter of inhibition zone [9]: 19 mm | MIC [9]: 200 µg/mL (≈ 477 µM)

C[Si]1(C)OB(O)c2cc(F)c(S(=O)(=O)Cl)c(F)c21 [Compound 26, 5,7-Difluoro-3-hydroxy-1,1-dimethyl-1,3-dihydrobenzo[c][1,2,5]oxasilaborole-6-sulfonyl chloride]
MIC [1]: 200 µg/mL | MIC [2]: > 400 µg/mL | MIC [3]: > 400 µg/mL | MIC [4, 11]: > 400 µg/mL | MIC [5]: > 400 µg/mL | diameter of inhibition zone [6]: 14 mm | MBC [6, 10]: 400 µg/mL | MIC [6]: 200 µg/mL | MIC [7]: > 400 µg/mL | MIC [8, 12]: > 400 µg/mL | MIC [9]: > 400 µg/mL

C[Si]1(C)OB(O)c2ccc(SCC(=O)c3ccccc3)c(F)c21 [Compound 23, 2-((7-Fluoro-3-hydroxy-1,1-dimethyl-1,3-dihydrobenzo[c][1,2,5]oxasilaborol-6-yl)thio)-1-phenylethan-1-one]
MBC [1, 10]: 25 µg/mL (≈ 72.2 µM) | MIC [1]: 3.12 µg/mL (≈ 9.01 µM) | MBC [1, 13]: 100 µg/mL (≈ 289 µM) | MIC [2]: > 400 µg/mL | MIC [3]: > 400 µg/mL | MIC [4, 11]: > 400 µg/mL | MIC [5]: > 400 µg/mL | diameter of inhibition zone [6]: 31 mm | MBC [6, 10]: 3.12 µg/mL (≈ 9.01 µM) | MIC [6]: 1.56 µg/mL (≈ 4.51 µM) | MBC [6, 13]: 200 µg/mL (≈ 578 µM) | MIC [7]: > 400 µg/mL | diameter of inhibition zone ([8]; S. cerevisiae ATCC 9763): 24 mm | MFC ([8]; Saccharomyces cerevisiae, ATCC9763, S. cerevisiae ATCC 9763): 200 µg/mL (≈ 578 µM) | MIC [8, 12]: 25 µg/mL (≈ 72.2 µM) | MIC [9]: > 400 µg/mL

C[Si]1(C)OB(O)c2cc(F)c(SCCC#N)c(F)c21 [Compound 6, 3-((5,7-Difluoro-3-hydroxy-1,1-dimethyl-1,3-dihydrobenzo[c][1,2,5]oxasilaborol-6-yl)thio)propanenitrile]
MBC [1, 10]: > 400 µg/mL | MIC [1]: 12.5 µg/mL (≈ 41.8 µM) | MIC [2]: > 400 µg/mL | MIC [3]: > 400 µg/mL | -fold reduction of MIC in the presence of PAβN ([4]; PAβN 20 μg mL^−1, MHB + 1 mM MgSO4): 2 -fold | MIC [4, 11]: > 400 µg/mL | MIC [5]: > 400 µg/mL | diameter of inhibition zone [6]: 30 mm | MBC [6, 10]: 12.5 µg/mL (≈ 41.8 µM) | MIC [6]: 6.25 µg/mL (≈ 20.9 µM) | MBC [6, 13]: > 400 µg/mL | MIC [7]: > 400 µg/mL | MIC [8, 12]: > 400 µg/mL | MIC [9]: > 400 µg/mL

C[Si]1(C)OB(O)c2cc(F)c(S(N)(=O)=O)c(F)c21 [Compound 27, 5,7-Difluoro-3-hydroxy-1,1-dimethyl-1,3-dihydrobenzo[c][1,2,5]oxasilaborole-6-sulfonamide]
MIC [1]: > 400 µg/mL | MIC [2]: > 400 µg/mL | MIC [3]: > 400 µg/mL | MIC [4, 11]: > 400 µg/mL | MIC [5]: > 400 µg/mL | MIC [6]: 400 µg/mL (≈ 1360 µM) | MIC [7]: > 400 µg/mL | MIC [8, 12]: > 400 µg/mL | MIC [9]: > 400 µg/mL

C[Si]1(C)OB(O)c2cc(F)c(SC3CC(=O)N(c4ccc(F)cc4)C3=O)c(F)c21 (centres unmarked) [Compound 14, 3-((5,7-Difluoro-3-hydroxy-1,1-dimethyl-1,3-dihydrobenzo[c][1,2,5]oxasilaborol-6-yl)thio)-1-(4-fluorophenyl)pyrrolidine-2,5-dione]
MIC [1]: 50 µg/mL (≈ 114 µM) | diameter of inhibition zone [2, 14]: 11 mm | MIC [2]: 200 µg/mL (≈ 457 µM) | MIC [3]: > 200 µg/mL | diameter of inhibition zone [4, 14]: 11 mm | MBC [4, 11]: 100 µg/mL (≈ 229 µM) | MIC [4, 11]: 25 µg/mL (≈ 57.2 µM) | MIC [5]: 100 µg/mL (≈ 229 µM) | diameter of inhibition zone [6]: 22 mm | MIC [6]: 50 µg/mL (≈ 114 µM) | MIC [7]: > 200 µg/mL | diameter of inhibition zone ([8]; S. cerevisiae ATCC 9763): 30 mm | MIC [8, 12]: 50 µg/mL (≈ 114 µM) | diameter of inhibition zone [9]: 21 mm | MIC [9]: 200 µg/mL (≈ 457 µM)

C[Si]1(C)OB(O)c2cc(F)c(S(=O)(=O)N3CCOCC3)c(F)c21 [Compound 29, 5,7-Difluoro-1,1-dimethyl-6-(morpholinosulfonyl)benzo[c][1,2,5]oxasilaborol-3(1H)-ol]
MIC [1]: 400 µg/mL (≈ 1100 µM) | MIC [2]: > 400 µg/mL | MIC [3]: > 400 µg/mL | MIC [4, 11]: > 400 µg/mL | MIC [5]: > 400 µg/mL | diameter of inhibition zone [6]: 16 mm | MBC [6, 10]: 400 µg/mL (≈ 1100 µM) | MIC [6]: 200 µg/mL (≈ 551 µM) | MIC [7]: > 400 µg/mL
